Reference: patent US11806342B2, “Diiodohydroxyquinoline for the treatment of clostridium difficile infection” (Purdue Research Foundation, priority 2019, dated 2023)
≈ marks a conversion by molar mass, not a printed value.

Key:
Format in all cases: cell-based, Clostridium difficile
C. difficile ATCC 43598 = assay: MIC and MBC, broth microdilution; conditions: Clostridioides difficile, ATCC43598
Description: (§1) MIC50 and MIC90 are the minimum concentration of each agent that inhibited growth of 50% and 90% of the tested isolates, respectively. The minimum bactericidal concentration (MBC) of these drugs was tested by plating 5 μL from wells with no growth onto BHIS agar plates. The MBC was categorized as the lowest concentration that reduced bacterial growth by 99.9% MIC50 and MIC90 are the minimum concentration of each agent that inhibited the growth of 50% and 90% of the tested isolates, respectively. The minimum bactericidal concentration (MBC) of these drugs was tested by plating 5 μL from wells with no growth onto BHIS agar plates. The MBC was categorized as the lowest concentration that reduced bacterial growth by 99.9% [29-31].

C. difficile ATCC 700057 = assay: MIC and MBC, broth microdilution; conditions: Clostridioides difficile, ATCC700057
Description: as §1

C. difficile ATCC 9689 = assay: MIC and MBC, broth microdilution; conditions: Clostridioides difficile, ATCC9689
Description: as §1

[1] = system: C. difficile ATCC BAA-1870; assay: MIC and MBC, broth microdilution; conditions: Clostridioides difficile, ATCCBAA1870
Description: as §1

C. difficile HM-89 = assay: MIC and MBC, broth microdilution; conditions: Clostridioides difficile, HM89
Description: as §1

C. difficile I1 = assay: MIC and MBC, broth microdilution; conditions: Clostridioides difficile, I1
Description: as §1

C. difficile I2 = assay: MIC and MBC, broth microdilution; conditions: Clostridioides difficile, I2
Description: as §1

C. difficile I4 = assay: MIC and MBC, broth microdilution; conditions: Clostridioides difficile, I4
Description: as §1

C. difficile NR-49277 [2] = assay: MIC and MBC, broth microdilution; conditions: Clostridioides difficile, NR49277
Description: as §1

C. difficile NR-49281 = assay: MIC and MBC, broth microdilution; conditions: Clostridioides difficile, NR49281
Description: as §1

C. difficile NR-49284 = assay: MIC and MBC, broth microdilution; conditions: Clostridioides difficile, NR49284
Description: as §1

C. difficile NR-49286 = assay: MIC and MBC, broth microdilution; conditions: Clostridioides difficile, NR49286
Description: as §1

C. difficile NR-49290 = assay: MIC and MBC, broth microdilution; conditions: Clostridioides difficile, NR49290
Description: as §1

C. difficile P11 = assay: MIC and MBC, broth microdilution; conditions: Clostridioides difficile, P11
Description: as §1

C. difficile P13 = assay: MIC and MBC, broth microdilution; conditions: Clostridioides difficile, P13
Description: as §1

C. difficile P1 = assay: MIC and MBC, broth microdilution; conditions: Clostridioides difficile, P1
Description: as §1

C. difficile P24 = assay: MIC and MBC, broth microdilution; conditions: Clostridioides difficile, P24
Description: as §1

C. difficile P2 = assay: MIC and MBC, broth microdilution; conditions: Clostridioides difficile, P2
Description: as §1

C. difficile P7 = assay: MIC and MBC, broth microdilution; conditions: Clostridioides difficile, P7
Description: as §1

C. difficile P8 = assay: MIC and MBC, broth microdilution; conditions: Clostridioides difficile, P8
Description: as §1

[3] = system: 38 tested C. difficile strains; assay: MIC and MBC over the panel of clinical isolates (MIC50, MIC90, range); conditions: Clostridioides difficile
Description: as §1

C. difficile ATCC 43255 = assay: Toxin A and B production inhibition, ELISA; conditions: C. difficile ATCC 43255, ¼×MIC and ½×MIC
Description: (§2) To investigate DIHQs toxin production inhibitory activity, toxin A and toxin B levels were measured as described previously. […] An aliquot from each tube was diluted and plated on BHIS agar plates and incubated anaerobically at 37° C. for 24 hours to detect the bacterial count. The total concentration of C. difficile toxin A and B was measured in the supernatant of each tube using enzyme linked immunosorbent assay (ELISA) kit (tgc BIOMICS, Dunwoody, GA) following the manufacturer's instructions. The (OD450-OD620) values, corresponding to the toxin concentration, were measured for DIHQ and control drugs.

[4] = system: C. difficile ATCC BAA-1870; assay: Toxin A and B production inhibition, ELISA; conditions: C. difficile ATCC BAA-1870, ¼×MIC and ½×MIC
Description: as §2

C. difficile NR-49277 [5] = assay: Toxin A and B production inhibition, ELISA; conditions: C. difficile NR-49277, ¼×MIC and ½×MIC
Description: as §2

Work on CN[C@H](CC(C)C)C(=O)N[C@H]1C(=O)N[C@@H](CC(N)=O)C(=O)N[C@H]2C(=O)N[C@H]3C(=O)N[C@H](C(=O)N[C@H](C(=O)O)c4cc(O)cc(O)c4-c4cc3ccc4O)[C@H](O)c3ccc(c(Cl)c3)Oc3cc2cc(c3O[C@@H]2O[C@H](CO)[C@@H](O)[C@H](O)[C@H]2O[C@H]2C[C@](C)(N)[C@H](O)[C@H](C)O2)Oc2ccc(cc2Cl)[C@H]1O [Vancomycin, vancomycin] yielded an MBC (C. difficile ATCC 43598) of 1 µg/mL (≈ 0.69 µM), an MIC (C. difficile ATCC 43598) of 1 µg/mL (≈ 0.69 µM) and an MBC (C. difficile ATCC 700057) of 0.5 µg/mL (≈ 0.345 µM). The MIC (C. difficile ATCC 700057) was 0.5 µg/mL (≈ 0.345 µM), the MBC (C. difficile ATCC 9689) was 1 µg/mL (≈ 0.69 µM) and the MIC (C. difficile ATCC 9689) was 0.5 µg/mL (≈ 0.345 µM). It also gave an MBC [1] of 1 µg/mL (≈ 0.69 µM), an MIC [1] of 1 µg/mL (≈ 0.69 µM) and an MBC (C. difficile HM-89) of 1 µg/mL (≈ 0.69 µM). It also gave an MIC (C. difficile HM-89) of 1 µg/mL (≈ 0.69 µM), an MBC (C. difficile I1) of 1 µg/mL (≈ 0.69 µM) and an MIC (C. difficile I1) of 1 µg/mL (≈ 0.69 µM). The MBC (C. difficile I2) was 1 µg/mL (≈ 0.69 µM), the MIC (C. difficile I2) was 1 µg/mL (≈ 0.69 µM) and the MBC (C. difficile I4) was 0.5 µg/mL (≈ 0.345 µM). For the same compound, the MIC (C. difficile I4) was 0.5 µg/mL (≈ 0.345 µM), the MBC (C. difficile NR-49277 [2]) was 1 µg/mL (≈ 0.69 µM) and the MIC (C. difficile NR-49277 [2]) was 1 µg/mL (≈ 0.69 µM). It also gave an MBC (C. difficile NR-49281) of 0.25 µg/mL (≈ 0.173 µM), an MIC (C. difficile NR-49281) of 0.25 µg/mL (≈ 0.173 µM) and an MBC (C. difficile NR-49284) of 0.5 µg/mL (≈ 0.345 µM). For the same compound, the MIC (C. difficile NR-49284) was 0.25 µg/mL (≈ 0.173 µM), the MBC (C. difficile NR-49286) was 0.5 µg/mL (≈ 0.345 µM) and the MIC (C. difficile NR-49286) was 0.25 µg/mL (≈ 0.173 µM). The MBC (C. difficile NR-49290) was 1 µg/mL (≈ 0.69 µM), the MIC (C. difficile NR-49290) was 0.5 µg/mL (≈ 0.345 µM) and the MBC (C. difficile P11) was 1 µg/mL (≈ 0.69 µM). It also gave an MIC (C. difficile P11) of 1 µg/mL (≈ 0.69 µM), an MBC (C. difficile P13) of 0.5 µg/mL (≈ 0.345 µM) and an MIC (C. difficile P13) of 0.5 µg/mL (≈ 0.345 µM). The MBC (C. difficile P1) was 0.5 µg/mL (≈ 0.345 µM), the MIC (C. difficile P1) was 0.5 µg/mL (≈ 0.345 µM) and the MBC (C. difficile P24) was 0.5 µg/mL (≈ 0.345 µM). For the same compound, the MIC (C. difficile P24) was 0.5 µg/mL (≈ 0.345 µM), the MBC (C. difficile P2) was 1 µg/mL (≈ 0.69 µM) and the MIC (C. difficile P2) was 1 µg/mL (≈ 0.69 µM). The MBC (C. difficile P7) was 0.5 µg/mL (≈ 0.345 µM), the MIC (C. difficile P7) was 0.5 µg/mL (≈ 0.345 µM) and the MBC (C. difficile P8) was 1 µg/mL (≈ 0.69 µM). It also gave an MIC (C. difficile P8) of 1 µg/mL (≈ 0.69 µM), an MIC50 [3] of 0.5 µg/mL (≈ 0.345 µM) and an MIC90 [3] of 1 µg/mL (≈ 0.69 µM). For the same compound, the “toxin inhibition (in words)” value (C. difficile ATCC 43255) was “No toxin inhibition”, the “toxin inhibition (in words)” value [4] was “No toxin inhibition” and the “toxin inhibition (in words)” value (C. difficile NR-49277 [5]) was “No toxin inhibition”.
